# Data from PubChem BioAssay (NCI).
#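 Each compound was tested at five concentrations against cells in 96-well plates for 48 hours. The concentration for 50% growth inhibition is given as GI50. TGI denotes the concentration required for complete inhibition of growth.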
# Tests used:
# Test in all cases: inhibition of tumour cell growth, NCI panel, 48 h
# [1] = system: 786-0 renal
# [2] = system: A498 renal
# [3] = system: A549 NSCLC
# [4] = system: ACHN renal
# [5] = system: BT-549 breast
# [6] = system: CAKI-1 renal
# [7] = system: CCRF-CEM leukemia
# [8] = system: COLO 205 colon
# [9] = system: DU-145 prostate
# [10] = system: EKVX NSCLC
# [11] = system: HCC-2998 colon
# [12] = system: HCT-116 colon
# [13] = system: HCT-15 colon
# [14] = system: HL-60(TB) leukemia
# [15] = system: HOP-62 NSCLC
# [16] = system: HOP-92 NSCLC
# [17] = system: HS 578T breast
# [18] = system: HT29 colon
# [19] = system: IGROV1 ovarian
# [20] = system: K-562 leukemia
# [21] = system: KM12 colon
# [22] = system: LOX IMVI melanoma
# [23] = system: M14 melanoma
# [24] = system: MALME-3M melanoma
# [25] = system: MCF7 breast
# [26] = system: MDA-MB-231 breast
# [27] = system: MDA-MB-435
# [28] = system: MDA-MB-468 breast
# [29] = system: MOLT-4 leukemia
# [30] = system: NCI-H226 lung
# [31] = system: NCI-H23 lung
# [32] = system: NCI-H460 lung
# [33] = system: NCI-H522 lung
# [34] = system: OVCAR-3 ovarian
# [35] = system: OVCAR-4 ovarian
# [36] = system: OVCAR-5 ovarian
# [37] = system: OVCAR-8 ovarian
# [38] = system: PC-3 prostate
# [39] = system: RPMI-8226 leukemia
# [40] = system: RXF 393 renal
# [41] = system: SF-268 CNS
# [42] = system: SF-295 CNS
# [43] = system: SF-539 CNS
# [44] = system: SK-MEL-2 melanoma
# [45] = system: SK-MEL-28 melanoma
# [46] = system: SK-MEL-5 melanoma
# [47] = system: SK-OV-3 ovarian
# [48] = system: SN12C renal
# [49] = system: SNB-19 CNS
# [50] = system: SNB-75 CNS
# [51] = system: SR leukemia
# [52] = system: SW-620 colon
# [53] = system: T-47D breast
# [54] = system: TK-10 renal
# [55] = system: U251 CNS
# [56] = system: UACC-257 melanoma
# [57] = system: UACC-62 melanoma
# [58] = system: UO-31 renal
compound,measurement,setting,value
Nc1n[nH]c2cccc(C#Cc3cccc(NC(=O)Nc4cc(C(F)(F)F)cc(C(F)(F)F)c4)c3)c12,GI50,[1],2.16 µM
same,TGI,[1],4.78 µM
same,GI50,[2],3.84 µM
same,TGI,[2],10.4 µM
same,GI50,[3],2.59 µM
same,TGI,[3],11.3 µM
same,GI50,[4],2.71 µM
same,TGI,[4],9.39 µM
same,GI50,[5],1.97 µM
same,TGI,[5],5.3 µM
same,GI50,[6],2.36 µM
same,TGI,[6],11.5 µM
same,GI50,[7],3.27 µM
same,TGI,[7],14.2 µM
same,GI50,[8],1.88 µM
same,TGI,[8],4 µM
same,GI50,[9],3.5 µM
same,TGI,[9],12.5 µM
same,GI50,[10],2.71 µM
same,TGI,[10],8.02 µM
same,GI50,[11],2.31 µM
same,TGI,[11],5.07 µM
same,GI50,[12],2.07 µM
same,TGI,[12],5.64 µM
same,GI50,[13],2.48 µM
same,TGI,[13],10.1 µM
same,GI50,[14],1.81 µM
same,TGI,[14],7.04 µM
same,GI50,[15],1.93 µM
same,TGI,[15],4.25 µM
same,GI50,[16],1.9 µM
same,TGI,[16],5.12 µM
same,GI50,[17],1.97 µM
same,TGI,[17],7.7 µM
same,GI50,[18],1.67 µM
same,TGI,[18],3.26 µM
same,GI50,[19],2.66 µM
same,TGI,[19],7.78 µM
same,GI50,[20],2.72 µM
same,TGI,[20],> 100 µM
same,GI50,[21],1.85 µM
same,TGI,[21],4.1 µM
same,GI50,[22],1.6 µM
same,TGI,[22],2.94 µM
same,GI50,[23],2.02 µM
same,TGI,[23],4.55 µM
same,GI50,[24],1.6 µM
same,TGI,[24],4.24 µM
same,GI50,[25],2.52 µM
same,TGI,[25],7.36 µM
same,GI50,[26],1.06 µM
same,TGI,[26],2.45 µM
same,GI50,[27],1.92 µM
same,TGI,[27],4.18 µM
same,GI50,[28],2.22 µM
same,TGI,[28],6 µM
same,GI50,[29],2.77 µM
same,TGI,[29],10.2 µM
same,GI50,[30],2.82 µM
same,TGI,[30],9.34 µM
same,GI50,[31],2.16 µM
same,TGI,[31],5.44 µM
same,GI50,[32],2.04 µM
same,TGI,[32],5.14 µM
same,GI50,[33],2.37 µM
same,TGI,[33],7.01 µM
same,GI50,[34],2.67 µM
same,TGI,[34],8.06 µM
same,GI50,[35],2.6 µM
same,TGI,[35],8.39 µM
same,GI50,[36],2.2 µM
same,TGI,[36],10.4 µM
same,GI50,[37],2.93 µM
same,TGI,[37],10 µM
same,GI50,[38],2.23 µM
same,TGI,[38],6.96 µM
same,GI50,[39],2.63 µM
same,TGI,[39],9.16 µM
same,GI50,[40],2.55 µM
same,TGI,[40],6.69 µM
same,GI50,[41],3.2 µM
same,TGI,[41],14 µM
same,GI50,[42],2.32 µM
same,TGI,[42],6.83 µM
same,GI50,[43],1.52 µM
same,TGI,[43],4.28 µM
same,GI50,[44],1.62 µM
same,TGI,[44],3.34 µM
same,GI50,[45],2.76 µM
same,TGI,[45],8.6 µM
same,GI50,[46],1.88 µM
same,TGI,[46],3.69 µM
same,GI50,[47],3.87 µM
same,TGI,[47],12.3 µM
same,GI50,[48],1.52 µM
same,TGI,[48],3.31 µM
same,GI50,[49],7.62 µM
same,TGI,[49],21.2 µM
same,GI50,[50],0.287 µM
same,TGI,[50],10.6 µM
same,GI50,[51],2.58 µM
same,TGI,[51],15.3 µM
same,GI50,[52],1.96 µM
same,TGI,[52],3.8 µM
same,GI50,[53],2.73 µM
same,TGI,[53],11 µM
same,GI50,[54],4.2 µM
same,TGI,[54],12.9 µM
same,GI50,[55],2.3 µM
same,TGI,[55],6.22 µM
same,GI50,[56],2.59 µM
same,TGI,[56],8.44 µM
same,GI50,[57],2.11 µM
same,TGI,[57],4.9 µM
same,GI50,[58],3.11 µM
same,TGI,[58],10.3 µM
Cc1ccc(C(=O)Nc2ccc(-n3ccnc3)c(C(F)(F)F)c2)cc1C#Cc1cnc2cccnn12,GI50,[1],2.7 µM
same,TGI,[1],> 45.8 µM
same,GI50,[2],2.69 µM
same,TGI,[2],> 45.8 µM
same,GI50,[3],1.82 µM
same,TGI,[3],> 45.8 µM
same,GI50,[4],1.64 µM
same,TGI,[4],20.5 µM
same,GI50,[5],1.42 µM
same,TGI,[5],4.08 µM
same,GI50,[6],1.42 µM
same,TGI,[6],16 µM
same,GI50,[7],1.38 µM
same,TGI,[7],> 45.8 µM
same,GI50,[8],1.22 µM
same,TGI,[8],> 45.8 µM
same,GI50,[9],2.53 µM
same,TGI,[9],> 45.8 µM
same,GI50,[10],3.11 µM
same,TGI,[10],> 45.8 µM
same,GI50,[11],1.13 µM
same,TGI,[11],> 45.8 µM
same,GI50,[12],0.917 µM
same,TGI,[12],> 45.8 µM
same,GI50,[13],1.29 µM
same,TGI,[13],> 45.8 µM
same,GI50,[14],0.215 µM
same,TGI,[14],1.54 µM
same,GI50,[15],1.36 µM
same,TGI,[15],> 45.8 µM
same,GI50,[16],0.702 µM
same,TGI,[16],3.1 µM
same,GI50,[17],0.713 µM
same,TGI,[17],2.93 µM
same,GI50,[18],0.915 µM
same,TGI,[18],> 45.8 µM
same,GI50,[20],0.00458 µM
same,TGI,[20],> 45.8 µM
same,GI50,[21],0.203 µM
same,TGI,[21],> 45.8 µM
same,GI50,[22],0.637 µM
same,TGI,[22],> 45.8 µM
same,GI50,[23],0.567 µM
same,TGI,[23],> 45.8 µM
same,GI50,[24],0.198 µM
same,TGI,[24],1.72 µM
same,GI50,[25],2.14 µM
same,TGI,[25],> 45.8 µM
same,GI50,[26],0.331 µM
same,TGI,[26],3.21 µM
same,GI50,[27],1.1 µM
same,TGI,[27],> 45.8 µM
same,GI50,[28],1.57 µM
same,TGI,[28],> 45.8 µM
same,GI50,[29],0.822 µM
same,TGI,[29],3.51 µM
same,GI50,[30],0.567 µM
same,TGI,[30],14.4 µM
same,GI50,[31],1.02 µM
same,TGI,[31],> 45.8 µM
same,GI50,[32],1.73 µM
same,TGI,[32],> 45.8 µM
same,GI50,[33],0.851 µM
same,TGI,[33],3.36 µM
same,GI50,[34],2.38 µM
same,TGI,[34],> 45.8 µM
same,GI50,[35],1.3 µM
same,TGI,[35],> 45.8 µM
same,GI50,[36],1.02 µM
same,TGI,[36],> 45.8 µM
same,GI50,[37],1.32 µM
same,TGI,[37],> 45.8 µM
same,GI50,[38],1.55 µM
same,TGI,[38],12.1 µM
same,GI50,[39],0.83 µM
same,TGI,[39],3.6 µM
same,GI50,[40],1.12 µM
same,TGI,[40],3.31 µM
same,GI50,[41],1.98 µM
same,TGI,[41],> 45.8 µM
same,GI50,[42],1.27 µM
same,TGI,[42],> 45.8 µM
same,GI50,[44],0.458 µM
same,TGI,[44],2.51 µM
same,GI50,[45],0.79 µM
same,TGI,[45],5.78 µM
same,GI50,[46],1.27 µM
same,TGI,[46],4.92 µM
same,GI50,[47],5.18 µM
same,TGI,[47],> 45.8 µM
same,GI50,[48],1.06 µM
same,TGI,[48],> 45.8 µM
same,GI50,[49],6.06 µM
same,TGI,[49],> 45.8 µM
same,GI50,[50],0.69 µM
same,TGI,[50],5.75 µM
same,GI50,[51],1.33 µM
same,TGI,[51],> 45.8 µM
same,GI50,[52],1.19 µM
same,TGI,[52],> 45.8 µM
same,GI50,[53],0.943 µM
same,TGI,[53],4.11 µM
same,GI50,[54],2.91 µM
same,TGI,[54],> 45.8 µM
same,GI50,[55],3.66 µM
same,TGI,[55],> 45.8 µM
same,GI50,[56],1.19 µM
same,TGI,[56],> 45.8 µM
same,GI50,[57],0.495 µM
same,TGI,[57],1.62 µM
same,GI50,[58],0.702 µM
same,TGI,[58],> 45.8 µM
